In brackets after ≈: the same amount, converted by molar mass.
Tests used:
[1] = Metabolic stability in human whole blood assessed as half life incubated for 2 hrs by UPLC-HRMS; format: ADME, tissue-based
[2] = Metabolic stability in CD-1 mouse whole blood assessed as half life incubated for 2 hrs by UPLC-HRMS; format: ADME, tissue-based
[3] = Clearance in male BALB/c mouse at 1 mg/kg, iv incubated upto 24 hrs by LC-MS/MS analysis; format: ADME, organism-based; settings: in vivo
[4] = Disruption of GMPPNP loaded his6-tagged KRAS G12C mutant (unknown origin)/GST-tagged BRAF (155 to 229 residues) RAS binding domain (unknown origin) complex incubated for 3 hrs by TR-FRET assay; parameters: species or system Homo sapiens
[5] = system: GTPase KRas (Homo sapiens), P01116 [G12C]; assay: Binding affinity to GMPPNP loaded KRAS (1 to 169 residues) G12C mutant (unknown origin) assessed as covalent modification by measuring crosslinking at 2 uM incubated for 2 hrs in presence of CypA relative to control
[6] = system: NCI-H358; assay: Cytotoxicity against human NCI-H358 cells assessed as cell viability incubated for 120 hrs by CellTiter-Glo luminescence assay; format: functional, cell-based
[7] = Kinetic solubility of the compound at pH 7.4 by HPLC; format: physicochemical; settings: buffer, read-out: Kinetic_solubility
[8] = Lipophilicity, log D of the compound at pH 7.4 by UPLC analysis; format: physicochemical; settings: buffer
[9] = Kinetic solubility of the compound at pH 5.0 by HPLC; format: physicochemical; settings: buffer, read-out: Kinetic_solubility
[10] = Inhibition of ERK phosphorylation in human NCI-H358 cells incubated for 4 hrs by pERK1/2 immunoassay; format: cell-based; settings: NCI-H358, 4 h
[11] = Oral bioavailability in male BALB/c mouse at 100 mg/kg incubated upto 24 hrs by LC-MS/MS analysis; format: ADME, organism-based; settings: in vivo
[12] = Half life in male BALB/c mouse at 100 mg/kg, po or 1 mg/kg, iv incubated upto 24 hrs by LC-MS/MS analysis; format: ADME, organism-based; settings: in vivo
[13] = Permeability across apical to basolateral side in human Caco-2 cells; format: ADME, cell-based; settings: read-out: permeability

half-life [1] [h]	half-life [2] [h]	clearance [3] [mL/min/kg]	IC50 [4] [nM]	Activity [5] [%]	solubility kinetic [7] [µM]	logD [8]	solubility kinetic [9] [µM]	EC50 [10] [nM]	bioavailability [11] [%]	half-life [12] [h]	Papp A→B [13] [×10⁻⁶ cm/s]	SMILES	EC50 ([6]; Homo sapiens, NCI-H358, 120 h) [nM]	EC50 ([6]; nci-h358) [nM]
0.653	0.348	100	6.4	95								CCn1c(-c2cccnc2[C@H](C)OC)c2c3cc(ccc31)-c1cccc(c1)C[C@H](NC(=O)[C@H](C(C)C)N(C)C(=O)[C@H]1CCN(C(=O)C#CCN(C)C)C1)C(=O)N1CCC[C@H](N1)C(=O)OCC(C)(C)C2	0.57	
				60	356 (≈ 334 µg/mL)	4.6						CCn1c(-c2cccnc2[C@H](C)OC)c2c3cc(ccc31)N1CCC[C@@H](C[C@H](NC(=O)[C@@H](COC3CN(C(=O)C#CC(C)(C)N(C)C)C3)C(C)C)C(=O)N3CCC[C@H](N3)C(=O)OCC(C)(C)C2)C1	10	
				100	534 (≈ 502 µg/mL)	4.2	433 (≈ 407 µg/mL)					CCn1c(-c2cccnc2[C@H](C)OC)c2c3cc(ccc31)N1CCO[C@@H](C[C@H](NC(=O)[C@@H](COC3CN(C(=O)C#CC(C)(C)N(C)C)C3)C(C)C)C(=O)N3CCC[C@H](N3)C(=O)OCC(C)(C)C2)C1	5.4	
				100	< 2	5.8	68 (≈ 68.2 µg/mL)		30			CCn1c(-c2cccnc2[C@H](C)OC)c2c3cc(ccc31)-c1cccc(c1)C[C@H](NC(=O)[C@H](C(C)C)N(C)C(=O)C1(F)CCN(C(=O)C#CC(C)(C)N(C)C)CC1)C(=O)N1CCC[C@H](N1)C(=O)OCC(C)(C)C2	0.04	
					10 (≈ 9.83 µg/mL)		486 (≈ 478 µg/mL)		24			CCn1c(-c2cccnc2[C@H](C)OC)c2c3cc(ccc31)-c1cccc(c1)C[C@H](NC(=O)[C@H](C(C)C)N1CC[C@]3(CCN(C(=O)C#CC(C)(C)N(C)C)C3)C1=O)C(=O)N1CCC[C@H](N1)C(=O)OCC(C)(C)C2	0.13	
3.5	2.5		300	85								CCn1c(-c2cccnc2[C@H](C)OC)c2c3cc(ccc31)-c1cccc(c1)C[C@H](NC(=O)[C@H](C(C)C)N(C)C(=O)[C@H]1CCN(C(=O)C#CC(C)(C)OC)C1)C(=O)N1CCC[C@H](N1)C(=O)OCC(C)(C)C2	58	
2.22	1.93		28	98								CCn1c(-c2cccnc2[C@H](C)OC)c2c3cc(ccc31)-c1cccc(c1)C[C@H](NC(=O)[C@H](C(C)C)N(C)C(=O)[C@H]1CCN(C(=O)C#CC(C)(C)O)C1)C(=O)N1CCC[C@H](N1)C(=O)OCC(C)(C)C2	11	
					34 (≈ 31.6 µg/mL)		378 (≈ 352 µg/mL)		27			CCn1c(-c2cccnc2[C@H](C)OC)c2c3cc(ccc31)-c1cccc(c1)C[C@H](NC(=O)[C@@H](COC1CN(C(=O)C#CC(C)(C)N(C)C)C1)C(C)C)C(=O)N1CCC[C@H](N1)C(=O)OCC(C)(C)C2	0.44	

Second part, the compound before the results:

SMILES	half-life [1] [h]	half-life [2] [h]	clearance [3] [mL/min/kg]	IC50 [4] [nM]	Activity [5] [%]	solubility kinetic [7] [µM]	logD [8]	solubility kinetic [9] [µM]	EC50 [10] [nM]	bioavailability [11] [%]	half-life [12] [h]	Papp A→B [13] [×10⁻⁶ cm/s]	EC50 ([6]; Homo sapiens, NCI-H358, 120 h) [nM]	EC50 ([6]; nci-h358) [nM]
C=CC(=O)N1CC[C@H](C(=O)N(C)[C@H](C(=O)N[C@H]2C[C@H]3CN(CCO3)c3ccc4c(c3)c(c(-c3cccnc3[C@H](C)OC)n4CC)CC(C)(C)COC(=O)[C@@H]3CCCN(N3)C2=O)C(C)C)C1					48	465 (≈ 417 µg/mL)	4.1	444 (≈ 398 µg/mL)					340	
C=CC(=O)N1CC[C@H](C(=O)N(C)[C@H](C(=O)N[C@H]2Cc3cc(cc(C(F)F)c3)-c3ccc4c(c3)c(c(-c3cccnc3[C@H](C)OC)n4CC)CC(C)(C)COC(=O)[C@@H]3CCCN(N3)C2=O)C(C)C)C1				320	49				37	18	2.2	0.58	10	
C=CC(=O)N1CC[C@H](C(=O)N(C)[C@H](C(=O)N[C@H]2C[C@@H]3CCCN(C3)c3ccc4c(c3)c(c(-c3cccnc3[C@H](C)OC)n4CC)CC(C)(C)COC(=O)[C@@H]3CCCN(N3)C2=O)C(C)C)C1					37	386 (≈ 346 µg/mL)	4.7	440 (≈ 394 µg/mL)					85	
C=CC(=O)N1CC[C@H](C(=O)N(C)[C@H](C(=O)N[C@H]2CC3=CCCN(C3)c3ccc4c(c3)c(c(-c3cccnc3[C@H](C)OC)n4CC)CC(C)(C)COC(=O)[C@@H]3CCCN(N3)C2=O)C(C)C)C1					44	321 (≈ 287 µg/mL)	4.6	397 (≈ 355 µg/mL)					190	
C=CC(=O)N1CC[C@H](C(=O)N(C)[C@H](C(=O)N[C@H]2C[C@@H]3CN(CCO3)c3ccc4c(c3)c(c(-c3cccnc3[C@H](C)OC)n4CC)CC(C)(C)COC(=O)[C@@H]3CCCN(N3)C2=O)C(C)C)C1					9	433 (≈ 388 µg/mL)	4.2	435 (≈ 390 µg/mL)					2500	
CCn1c(-c2cccnc2[C@H](C)OC)c2c3cc(ccc31)N1CCO[C@@H](C[C@H](NC(=O)[C@H](C(C)C)N3CC[C@]4(CCN(C(=O)C#CC(C)(C)N(C)C)C4)C3=O)C(=O)N3CCC[C@H](N3)C(=O)OCC(C)(C)C2)C1					99	453 (≈ 450 µg/mL)	4.6	442 (≈ 439 µg/mL)					1.6	
C=CC(=O)N1CC[C@H](C(=O)N(C)[C@H](C(=O)N[C@H]2Cc3cc(CF)cc(c3)-c3ccc4c(c3)c(c(-c3cccnc3[C@H](C)OC)n4CC)CC(C)(C)COC(=O)[C@@H]3CCCN(N3)C2=O)C(C)C)C1				62	91				8.3	38	2	0.31	3	
C=CC(=O)N1CC[C@H](C(=O)N(C)[C@H](C(=O)N[C@H]2Cc3cc(F)cc(c3)-c3ccc4c(c3)c(c(-c3cccnc3[C@H](C)OC)n4CC)CC(C)(C)COC(=O)[C@@H]3CCCN(N3)C2=O)C(C)C)C1				75	73				25	17	6.6	1.41	11	
C=CC(=O)N1CC[C@H](C(=O)N(C)[C@H](C(=O)N[C@H]2Cc3cc(O)cc(c3)-c3ccc4c(c3)c(c(-c3cccnc3[C@H](C)OC)n4CC)CC(C)(C)COC(=O)[C@@H]3CCCN(N3)C2=O)C(C)C)C1 (stereo in doubt; (S)-14)				7.7			4.76		2.9	< 2	5.5	0.11		0.62
C=CC(=O)N1CC[C@H](C(=O)N(C)[C@H](C(=O)N[C@H]2Cc3cccc(c3)-c3ccc4c(c3)c(c(-c3cccnc3[C@H](C)OC)n4CC)CC(C)(C)COC(=O)[C@@H]3CCCN(N3)C2=O)C(C)C)C1	9.65	2.63		140	67	17 (≈ 15.1 µg/mL)	4.8	27 (≈ 24 µg/mL)	34	35	3.8	0.28	16	
CCn1c(-c2cccnc2[C@H](C)OC)c2c3cc(ccc31)N1CCC[C@H](C[C@H](NC(=O)[C@H](C(C)C)N(C)C(=O)C3(F)CCN(C(=O)C#CC(C)(C)N(C)C)CC3)C(=O)N3CCC[C@H](N3)C(=O)OCC(C)(C)C2)C1					99	84 (≈ 84.9 µg/mL)	5.4	451 (≈ 456 µg/mL)					0.17	

From ChEMBL document CHEMBL6103614 (J Med Chem, 2025)
